Results taken from PubChem BioAssay (NCI).
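Cells were grown in 96-well plates and exposed to each compound for 48 hours at five concentrations; endpoints were interpolated linearly between bracketing concentrations, or set to the highest concentration if not reached. Abbreviation: GI50, concentration required for 50% inhibition of growth. The concentration for full growth arrest is given as TGI.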

Assays:
Experiment in all cases: NCI-60 cell line screen, 48 h
M14 melanoma = test system: M14 melanoma
NCI-H460 lung = test system: NCI-H460 lung
NCI-H522 lung = test system: NCI-H522 lung
CAKI-1 renal = test system: CAKI-1 renal
MDA-MB-231 breast = test system: MDA-MB-231 breast
SR leukemia = test system: SR leukemia
MOLT-4 leukemia = test system: MOLT-4 leukemia
UACC-62 melanoma = test system: UACC-62 melanoma
IGROV1 ovarian = test system: IGROV1 ovarian
OVCAR-5 ovarian = test system: OVCAR-5 ovarian

SMILES	GI50 (M14 melanoma)	TGI (M14 melanoma)	GI50 (NCI-H460 lung)	TGI (NCI-H460 lung)	GI50 (NCI-H522 lung)	TGI (NCI-H522 lung)	GI50 (CAKI-1 renal)	TGI (CAKI-1 renal)	GI50 (MDA-MB-231 breast)	TGI (MDA-MB-231 breast)	GI50 (SR leukemia)	TGI (SR leukemia)	GI50 (MOLT-4 leukemia)	TGI (MOLT-4 leukemia)	GI50 (UACC-62 melanoma)	TGI (UACC-62 melanoma)	GI50 (IGROV1 ovarian)	TGI (IGROV1 ovarian)	GI50 (OVCAR-5 ovarian)	TGI (OVCAR-5 ovarian)
CN1CSC(=S)N(Cc2ccccc2)C1	6.65 µM	21.8 µM	15.3 µM	36.8 µM	1.89 µM	5.65 µM	34.6 µM	> 100 µM	13.6 µM	37.7 µM	2.11 µM	> 100 µM	11.2 µM	> 100 µM	13.4 µM	36 µM	10.3 µM	27.5 µM	16.5 µM	30.2 µM
COC(=O)CSSCc1ccc([N+](=O)[O-])cc1		46.4 µM		> 100 µM		30.8 µM		8.09 µM		46.8 µM		70.2 µM		> 100 µM		31.5 µM		17.1 µM		35.6 µM
O=[N+]([O-])c1cccc(C2CC(c3ccccc3)=Nc3ccccc3S2)c1 (stereo not given)	19.2 µM	44.6 µM	20.5 µM	48.7 µM	10.8 µM	23.5 µM	21.8 µM	> 100 µM	12.9 µM	33.6 µM	3.4 µM	> 100 µM	7.44 µM	> 100 µM	12.1 µM	44.1 µM	16.1 µM	35.6 µM	13.9 µM	28.1 µM
O=C1Cc2cc(C(=O)NC3C[C@H]4CC[C@@H](C3)N4S(=O)(=O)CC3CCN(CCCC(F)(F)F)CC3)c(Cl)cc2N1 (stereo not given in full)	> 100 µM	> 100 µM	> 100 µM	> 100 µM	> 100 µM	> 100 µM	> 100 µM	> 100 µM	> 100 µM	> 100 µM	26.5 µM	> 100 µM	> 100 µM	> 100 µM	> 100 µM	> 100 µM	> 100 µM	> 100 µM	> 100 µM	> 100 µM
C#CCOc1ccc2ncnc(Nc3ccc(NC(=O)C=C)cc3)c2c1	34.4 µM	> 100 µM	> 100 µM	> 100 µM	11.8 µM	39.7 µM	> 100 µM	> 100 µM	29 µM	> 100 µM	3.47 µM	57.4 µM	28.4 µM	> 100 µM	47.3 µM	> 100 µM	49.8 µM	> 100 µM	> 100 µM	> 100 µM
Cc1ccc(NC(=O)C(=O)CC(=O)c2sc(Nc3c(C)cccc3C)nc2C)cc1C		> 100 µM		> 100 µM		> 100 µM		> 100 µM		> 100 µM		> 100 µM		> 100 µM		> 100 µM		> 100 µM		> 100 µM
COc1cc2cc(Oc3ccc(NC(=O)Nc4ccc(Cl)c(Cl)c4)cc3)c(C)nc2cc1OC	2.56 µM	10.5 µM	2.46 µM	10.1 µM	1.74 µM	8.43 µM	2.12 µM	6.65 µM	2.46 µM	12 µM	3.1 µM	10.3 µM	3.02 µM	22.8 µM	3.33 µM	19.2 µM	5.61 µM	46.1 µM	10.1 µM	34.3 µM
N=c1c2c(=N)n3c(nc2nc2n1-c1ccccc1Sc1ccccc1-2)sc1cc(Cl)ccc13	4.11 µM	> 100 µM	1.77 µM	10.3 µM	1.2 µM	6.99 µM	1.94 µM	> 100 µM	2.8 µM	14 µM	2.77 µM	> 100 µM	2.33 µM	> 100 µM	1.16 µM	9.44 µM	3.51 µM	35.4 µM	7.55 µM	38.9 µM
COc1cccc(/C=C2\COc3ccc(-c4ccccc4)cc3C2=O)c1	3.87 µM	14.9 µM	1.74 µM	3.78 µM	1.86 µM	4.06 µM	2.55 µM	6.42 µM	2.94 µM	7.61 µM	1.98 µM	> 100 µM	3.09 µM	> 100 µM	3.06 µM	12.8 µM	3.12 µM	8.39 µM	3.67 µM	13.2 µM
C=C1C(=O)OC2/C=C(/C)C(OC(C)=O)C/C=C(\C)C(OC(=O)C3(C)OC3C)C(O)C12 (stereo not given)		> 100 µM		> 100 µM		28.6 µM		> 100 µM		> 100 µM		> 100 µM		> 100 µM		> 100 µM		> 100 µM		> 100 µM
CN1C(=O)C2(c3ccccc31)N(c1ccc(Cl)cc1)C(=O)C2(c1ccccc1)c1ccccc1 (stereo not given)	45.3 µM	> 100 µM	52.2 µM	> 100 µM	10 µM	> 100 µM	> 100 µM	> 100 µM	13.4 µM	> 100 µM	41.7 µM	> 100 µM	9.86 µM	> 100 µM	39.7 µM	> 100 µM	> 100 µM	> 100 µM	> 100 µM	> 100 µM
N#CC1c2ccccc2C=CN1C(=O)N(c1ccccc1)c1ccccc1 (stereo not given)	2.19 µM	5.19 µM	15.9 µM	34.2 µM	1.78 µM	3.33 µM	1.64 µM	3.63 µM	2.94 µM	8.35 µM	2.14 µM	6.32 µM	2.44 µM	7.45 µM	2.13 µM	5.57 µM	1.76 µM	3.66 µM	7.45 µM	24.3 µM
Cn1cc(C2=C(c3cn(CCCCCSC(=N)N)c4ccccc34)C(=O)NC2=O)c2ccccc21	3.23 µM	6.87 µM	3.73 µM	7.75 µM	1.92 µM	5.59 µM	4.03 µM	7.94 µM	3.91 µM	7.49 µM	0.79 µM	2.24 µM	2.06 µM	6.25 µM	3.87 µM	7.25 µM	3.51 µM	7.93 µM	4.48 µM	8.26 µM
